Test results taken from patent US11549123B2, “Plant EPSP synthases and methods of use” (PIONEER HI-BRED INTERNATIONAL, INC., priority 2015, dated 2023).
pKi: −log10 of the molar value.

Columns and labels:
[1] = test system: Type II EPSPS from Agrobacterium sp. strain CP4; settings: read-out: KM for PEP; U.S. Pat. No. 5,633,435; cited from earlier work
[2] = molecular target: Zea mays EPSPS variant WT-FS-B (103I 107S 278G 338S) (Zea mays, UniProt O24566, A337S/P106S/T102I/T277G); test: EPSPS substrate saturation kinetics, WT-FS-B; type: biochemical
Sequence of Zea mays EPSPS variant WT-FS-B (103I 107S 278G 338S) (O24566 entry or part of it T102I/P106S/T277G/A337S): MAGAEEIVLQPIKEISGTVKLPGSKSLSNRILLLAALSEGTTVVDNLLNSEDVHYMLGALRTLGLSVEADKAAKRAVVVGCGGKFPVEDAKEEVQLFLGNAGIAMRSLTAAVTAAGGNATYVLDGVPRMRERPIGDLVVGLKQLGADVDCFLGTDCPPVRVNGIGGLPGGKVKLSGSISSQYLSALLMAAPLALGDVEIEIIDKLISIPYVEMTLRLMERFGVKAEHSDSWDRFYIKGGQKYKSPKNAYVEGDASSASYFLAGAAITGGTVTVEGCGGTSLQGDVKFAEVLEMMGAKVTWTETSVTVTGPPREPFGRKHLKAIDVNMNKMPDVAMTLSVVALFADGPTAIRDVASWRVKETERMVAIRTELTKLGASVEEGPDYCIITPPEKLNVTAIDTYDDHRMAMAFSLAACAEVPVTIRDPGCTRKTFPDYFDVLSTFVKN
Protocol: (§1) EPSPS activity was determined by quantifying the phosphate generated from the EPSPS reaction. Release of inorganic phosphate was coupled to reaction with 2-amino-6-mercapto-7-methylpurine ribonucleoside, catalyzed by purine-nucleoside phosphorylase (M R Webb, Proc. Natl. Acad. Sci. 89:4884-4887, 1992). The absorbance change that occurs was monitored at 360 nm, where the extinction is 11,200 M^−1 cm^−1, with a Spectramax plate reader (Molecular Devices). To determine kinetic parameters, the varied substrate was present at seven concentrations (the eighth being the blank, containing no substrate) ranging from 4 to 400 uM and the unvaried substrate present at saturation. […] Reactions were monitored with a Spectramax plate reader. […] KI was then calculated from the following form of the Michaelis-Menten equation for competitive inhibition: KI=KM[I]/(KM app−KM) KM approximates the dissociation constant of the enzyme-substrate complex while kcat is the rate of conversion of substrate to product when the substrate concentration is saturating. kcat/KM is a widely accepted parameter for catalytic efficiency when substrate concentration is low (˜KM). […] The parameter kcat/KM×KI is used to quantify both catalytic efficiency and insensitivity and thus the overall fitness of the enzyme. […]

[3] = test system: Glycine max (93Y21) cotyledon hairy roots; test: Hairy root growth of transformed soybean cotyledons on 25 uM glyphosate; type: cell-based
[4] = molecular target: T1, Zea mays EPSPS variant Zm-H6 (868-H6) with D196V (H6-D196V) (Zea mays, UniProt O24566, A1R/A3W/A415G/A71Q/D195V/D401G/E301S/E390G/G101A/I207L/K83R/L97C/T278A/T360S/T440Q/V437R); test: Substrate saturation kinetic analysis with glyphosate, H6-D196V; type: biochemical
T1 construct: shuffled variant 868-H6 plus D196V; E. coli BL21(DE3), Ni-NTA purified
T1 sequence (O24566 with tags, fused parts or gaps A1R/A3W/A71Q/K83R/L97C/G101A/D195V/I207L/T278A/E301S/T360S/E390G/D401G/A415G/V437R/T440Q): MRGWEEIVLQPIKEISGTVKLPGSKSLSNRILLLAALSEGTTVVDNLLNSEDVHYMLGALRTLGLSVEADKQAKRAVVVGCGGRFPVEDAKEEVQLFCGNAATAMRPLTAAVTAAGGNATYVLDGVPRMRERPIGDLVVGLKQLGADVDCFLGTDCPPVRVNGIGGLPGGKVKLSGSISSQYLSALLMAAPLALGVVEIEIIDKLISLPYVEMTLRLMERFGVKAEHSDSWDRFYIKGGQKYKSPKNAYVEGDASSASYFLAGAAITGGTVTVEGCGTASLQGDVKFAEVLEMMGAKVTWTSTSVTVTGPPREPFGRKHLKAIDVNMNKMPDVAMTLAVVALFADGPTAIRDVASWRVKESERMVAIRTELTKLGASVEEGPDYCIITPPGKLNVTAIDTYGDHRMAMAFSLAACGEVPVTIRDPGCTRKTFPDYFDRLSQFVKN

[5] = molecular target: Zea mays EPSPS variant WT-FS-E2 (102A 302S 391G 438R I208L) (Zea mays, UniProt O24566, E301S/E390G/G101A/I207L/V437R); test: EPSPS substrate saturation kinetics, WT-FS-E2; type: biochemical
Sequence of Zea mays EPSPS variant WT-FS-E2 (102A 302S 391G 438R I208L) (O24566 entry or part of it G101A/I207L/E301S/E390G/V437R): as the sequence (O24566 entry or part of it T102I/P106S/T277G/A337S) above, with G102A, I103T, S107P, I208L, G278T, E302S, S338A, E391G, V438R counted along it
Protocol: as §1

[6] = PEP as substrate, glyphosate as inhibitor

Compound | Km [1] [µM] | pKi [2] | (kcat/KM)*KI [2, 6] | hairy root formation ([3]; EPSPS driven by weaker promoters (UBQ3 and native), with glyphosate) | hairy root formation ([3]; UBQ10 promoter and H6, C1 and C2 variants, 25 uM glyphosate) | root growth ([3]; native EPSPS (UBQ10 promoter), 25 uM glyphosate) | pKi [4] | (kcat/KM)*KI ([4]; substrate saturation, H6-D196V) | pKi [5] | (kcat/KM)*KI [5, 6]
C=C(OP(=O)(O)O)C(=O)O [PEP, phosphoenolpyruvate] | 12 |  |  |  |  |  |  |  |  | 
O=C(O)CNCP(=O)(O)O [glyphosate, N-phosphonomethylglycine] |  | 3.26 | 1971 | Hairy roots were not formed | generated hairy roots | no root growth | 3.16 | 1860 | 3.18 | 4512
